The subject of one test is Ba/F3-TEL-PDGFβ(WT). In words: Proliferation inhibitory activity on Ba/F3 cell (CellTiter-Glo, 72 hours), PDGFR-β. The test is classed as cell-based. The following applies: Mus musculus, BaF3, read-out: Ba/F3 (nM) Tel-PDGFRβ (GI50 class). How it is done:
Ba/F3-TEL-PDGFRα(WT), Ba/F3-TEL-PDGFβ(WT), Ba/F3-c-KIT(D816V) (Kyinno, #KC-0138), c-KIT V560G/D816V, c-KIT D814Y were seeded at 3×10^3/100 μl/well in a clear bottom white 96-well plate. A culture solution containing compounds of 12 concentrations (0.00001-2 mM) serially diluted in 3 folds and the DMSO control group was added at 0.5 μl/well each to a final concentration of 0.00005-10 μM, and then incubated in a CO2 incubator at 37° C. for 72 hours. After 72 hours, the plate treated with the compound was taken out, CellTiter-Glo® Assay (Promega) solution was treated with 100 μl/well, followed by mixing well. After mixing well for about 10 minutes at room temperature, […] was measured using a microplate reader. The data were presented as percentages in proportion to treated cells based on the vehicle, GI50 (nM) values were calculated using GraphPad Prism 8.3.0 (GraphPad software Inc., San Diego).
The inhibitory activities of Ba/F3 expressing PDGFR-α, PDGFR-β, c-KIT(D816V), c-KIT V560G/D816V, and c-KIT D814Y measured as described above were measured and shown in Table 7 below (A: GI50≤200 nM; B: 200 nM<GI50≤500 nM; C: GI50>500 nM).
For orientation: In ATP-based viability assays light output follows the ATP content of the culture.

Another test addresses T1, human PDGFR-β(wt) (Homo sapiens, UniProt P09619).
T1 construct: purchased Signalchem P13-11G
The test is described as follows: Enzyme inhibitory activity, ADP-Glo kinase assay, PDGFR-β(wt). Type of test: biochemical. The conditions noted are these: read-out: PDGFR-β (IC50 class). The procedure:
In order to evaluate the inhibitory activity of the compounds synthesized according to the above examples on PDGFR-α(wt), PDGFR-β(wt), c-KIT(wt), and c-KIT(D816V) kinases, the following method was performed. The compounds of examples were reacted with purified human PDGFR-α(wt) (Signalchem #P12-18G) enzyme, human PDGFR-β(wt) (Signalchem #P13-11G) enzyme, human c-KIT(wt) (Signalchem #K06-11BG) enzyme, human c-KIT(D816V) (Signalchem #C06-12LG) enzyme, and the enzyme inhibitory abilities were evaluated by the following method.
The reaction buffer was used as a composition of 40 mM Tris-HCl pH7.4, 20 mM MgCl2, 0.5 mg/ml BSA, 50 μM DTT, and the reactions of all the tests were carried out on the reaction buffer. The compound was diluted in 12 steps using a serial dilution method from a 10 mM DMSO stock, and the enzyme activity was measured at a final compound concentration of 10˜0.00005645 μM. During the test, the enzyme activity was confirmed using in vitro ADP-Glo™ kinase assay (Promega) after reacting with the proper concentration of human PDGFR-α(wt) enzyme, human PDGFR-β(wt), human c-KIT(wt) enzyme, and human c-KIT(D816V) enzyme with purified ATP and enzyme substrate at 25° C. for 1˜2 hours. At a ratio of 2:2:1, an enzyme-active reaction solution, an ADP-Glo reaction solution, and an enzyme-active detection solution were reacted to measure the inhibition of the enzyme's activity with luminoscence. Based on the […] of the enzyme activity of the solvent control that was not treated with the compound, the degree of enzyme activity inhibition was calculated according to the treatment concentration of each compound, and the concentration of each compound that inhibits 50% of enzyme activity was determined as IC50 (nM) value and the value was obtained by using GraphPad Prism 8.3.0 (GraphPad software Inc., San Diego) software. (A: IC50≤50 nM; B: 50 nM<IC50≤100 nM; C: 100 nM<IC50≤500 nM; D: IC50>500 nM).
On the technique in general: ADP-Glo first removes unused ATP, then detects ADP through luciferase.

For another test, the system named is Ba/F3-c-KIT(D816V). In words: Proliferation inhibitory activity on Ba/F3 cell (CellTiter-Glo, 72 hours), c-KIT(D816V). The test is classed as cell-based. The conditions noted are these: Mus musculus, BaF3, read-out: Ba/F3 (nM) c-KIT (D816V) (GI50 class). Summed up:
(§1)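 Viability was read by CellTiter-Glo after 72 h compound exposure at 37 °C, and GI50 values (nM) were derived from percent of vehicle-treated growth. Ba/F3 cells transformed with TEL-PDGFRα/β or mutant c-KIT were plated at 3×10^3 per well. Final compound range was 0.00005-10 μM in 12 threefold steps.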

The next test deals with c-KIT V560G/D816V. In words: Proliferation inhibitory activity on Ba/F3 cell (CellTiter-Glo, 72 hours), c-KIT V560G/D816V. Type of test: cell-based. The following applies: Mus musculus, BaF3, c-KIT V560G/D816V cells, read-out: Cell (nM) c-KIT V560G/D816V (GI50 class). Put shortly: as §1

Molecules are shown by their SMILES. Where only a bound is given, the exact number is not on record here.

T1 sequence (P09619 33-1106): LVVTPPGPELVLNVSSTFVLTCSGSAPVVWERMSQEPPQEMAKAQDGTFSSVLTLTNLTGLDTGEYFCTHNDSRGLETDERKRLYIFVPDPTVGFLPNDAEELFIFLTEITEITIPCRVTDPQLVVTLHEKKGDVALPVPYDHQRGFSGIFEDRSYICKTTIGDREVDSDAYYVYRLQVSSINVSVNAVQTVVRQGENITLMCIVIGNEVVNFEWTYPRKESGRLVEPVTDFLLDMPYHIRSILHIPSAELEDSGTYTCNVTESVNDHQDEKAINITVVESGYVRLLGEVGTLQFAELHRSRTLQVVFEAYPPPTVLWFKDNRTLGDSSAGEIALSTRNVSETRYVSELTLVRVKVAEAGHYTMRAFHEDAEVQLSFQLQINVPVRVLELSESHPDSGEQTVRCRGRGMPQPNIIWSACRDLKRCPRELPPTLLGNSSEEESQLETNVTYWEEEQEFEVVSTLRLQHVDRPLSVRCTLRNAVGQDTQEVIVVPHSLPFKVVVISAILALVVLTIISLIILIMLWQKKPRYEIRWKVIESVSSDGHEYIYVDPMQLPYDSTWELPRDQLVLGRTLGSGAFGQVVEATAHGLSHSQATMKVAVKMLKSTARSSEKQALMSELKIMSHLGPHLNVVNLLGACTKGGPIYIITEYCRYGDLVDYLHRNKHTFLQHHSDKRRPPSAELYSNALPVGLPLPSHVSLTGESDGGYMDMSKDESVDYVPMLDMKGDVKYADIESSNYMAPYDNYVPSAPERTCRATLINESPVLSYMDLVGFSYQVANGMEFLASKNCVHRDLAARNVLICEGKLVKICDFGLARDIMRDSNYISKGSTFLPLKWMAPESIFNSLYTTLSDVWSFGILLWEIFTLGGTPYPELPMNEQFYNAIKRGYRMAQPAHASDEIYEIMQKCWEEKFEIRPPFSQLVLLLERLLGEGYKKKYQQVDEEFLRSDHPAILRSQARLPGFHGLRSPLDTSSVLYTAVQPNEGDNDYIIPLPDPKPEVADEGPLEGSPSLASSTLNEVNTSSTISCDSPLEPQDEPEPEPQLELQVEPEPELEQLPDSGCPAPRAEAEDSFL

In general, IC50 refers to the point on the concentration scale where inhibition reaches its midpoint. In the case of `COc1cc2c(-c3ccc(NC(=O)C(C)c4ccco4)cc3)ncnc2cc1OCCCN1CCN(C)CC1` (stereo not shown) [Example 48, 2-(furan-2-yl)-N-(4-(6-methoxy-7-(3-(4-methylpiperazin-1-yl)propoxy)quinazolin-4-yl)phenyl)propanamide], in the test on Ba/F3-TEL-PDGFβ(WT), the GI50 is no more than 200 nM. The half-maximal inhibitory concentration (IC50) on human PDGFR-β(wt) was no more than 50 nM.
`COc1cc2c(-c3ccc(NC(=O)Cc4ccc(C(F)(F)F)cc4)c(C)c3)ncnc2cc1OCCCN1CCN(C)CC1` [Example 49, N-(4-(6-methoxy-7-(3-(4-methylpiperazin-1-yl)propoxy)quinazolin-4-yl)-2-methylphenyl)-2-(4-(trifluoromethyl)phenyl)acetamide]: the GI50 with Ba/F3-TEL-PDGFβ(WT) is no more than 200 nM. The IC50 on human PDGFR-β(wt) is no more than 50 nM.
Taken in the same sequence, the figures for `COc1cc2c(-c3ccc(NC(=O)Cc4ccc(C(F)(F)F)cc4)c(F)c3)ncnc2cc1OCCCN1CCN(C)CC1` [Example 50, N-(2-fluoro-4-(6-methoxy-7-(3-(4-methylpiperazin-1-yl)propoxy)quinazolin-4-yl)phenyl)-2-(4-(trifluoromethyl)phenyl)acetamide] were no more than 200 nM and no more than 50 nM.
Take `COc1cc2c(-c3ccc(NC(=O)Cc4cscn4)cc3)ncnc2cc1OCCCN1CCN(C)CC1` [Example 51, N-(4-(6-methoxy-7-(3-(4-methylpiperazin-1-yl)propoxy)quinazolin-4-yl)phenyl)-2-(thiazole-4-yl)acetamide]: the GI50 with Ba/F3-TEL-PDGFβ(WT) is no more than 200 nM. For the same compound, the IC50 on human PDGFR-β(wt) was no more than 50 nM.
`COCCN1CCC(COc2cc3ncnc(-c4ccc(NC(=O)Cc5ccc6c(c5)OCO6)c(F)c4)c3cc2OC)CC1` [Example 52, 2-(benzo[d][1,3]dioxol-5-yl)-N-(2-fluoro-4-(6-methoxy-7-((1-(2-methoxyethyl)piperidin-4-yl)methoxy)quinazolin-4-yl)phenyl)acetamide]: in the test with Ba/F3-TEL-PDGFβ(WT), the GI50 was no more than 200 nM.
Turning to `COCCN1CCC(COc2cc3ncnc(-c4ccc(NC(=O)Cc5ccc6c(c5)OCO6)c(C)c4)c3cc2OC)CC1` [Example 53, 2-(benzo[d][1,3]dioxol-5-yl)-N-(4-(6-methoxy-7-((1-(2-methoxyethyl)piperidin-4-yl)methoxy)quinazolin-4-yl)-2-methylphenyl)acetamide], the GI50 in the test with Ba/F3-TEL-PDGFβ(WT) is no more than 200 nM.
Turning to `COc1cc2c(-c3ccc(NC(=O)Cc4ccc5c(c4)OCO5)cc3)ncnc2cc1OCCCN1CCN(C)CC1` [Example 54, 2-(benzo[d][1,3]dioxol-5-yl)-N-(4-(6-methoxy-7-(3-(4-methylpiperazin-1-yl)propoxy)quinazolin-4-yl)phenyl)acetamide], the GI50 in the test with Ba/F3-TEL-PDGFβ(WT) is no more than 200 nM. In addition, the IC50 at human PDGFR-β(wt) was no more than 50 nM.
On to `CCN1CCC[C@H](COc2cc3ncnc(-c4ccc(NC(=O)Cc5ccc(C(F)(F)F)cc5)cc4)c3cc2OC)C1` [Example 76, (S)-N-(4-(7-((1-ethylpiperidin-3-yl)methoxy)-6-methoxyquinazolin-4-yl)phenyl)-2-(4-(trifluoromethyl)phenyl)acetamide], for which the GI50 in the test with Ba/F3-c-KIT(D816V) and in the test on c-KIT V560G/D816V was no more than 200 nM each time. Moreover, on human PDGFR-β(wt), the IC50 was no more than 50 nM.
With `COc1ccc(CC(=O)Nc2ccc(-c3ncnc4cc(OCCCN5CCN(C)CC5)c(OC)cc34)cc2)cn1` [Example 81, N-(4-(6-methoxy-7-(3-(4-methylpiperazin-1-yl)propoxy)quinazolin-4-yl)phenyl)-2-(6-methoxypyridin-3-yl)acetamide], the GI50 with Ba/F3-c-KIT(D816V) and in the test on c-KIT V560G/D816V was no more than 200 nM in each case. Besides, the IC50 at human PDGFR-β(wt) is no more than 50 nM.
On to `COc1cc2c(-c3ccc(NC(=O)Cc4ccc(Cl)c(C(F)(F)F)c4)cc3)ncnc2cc1OCCCN1CCN(C)CC1` [Example 82, 2-(4-chloro-3-(trifluoromethyl)phenyl)-N-(4-(6-methoxy-7-(3-(4-methylpiperazin-1-yl)propoxy)quinazolin-4-yl)phenyl)acetamide], for which the GI50 with Ba/F3-c-KIT(D816V) and with c-KIT V560G/D816V was no more than 200 nM each time. In addition, the IC50 at human PDGFR-β(wt) is no more than 50 nM.
In the case of `COc1cc2c(-c3ccc(NC(=O)Cc4ccc5c(c4)OCO5)cc3)ncnc2cc1OCC1CCNCC1` [Example 97, 2-(benzo[d][1,3]dioxol-5-yl)-N-(4-(6-methoxy-7-(piperidin-4-ylmethoxy)quinazolin-4-yl)phenyl)acetamide], the GI50 with c-KIT V560G/D816V was greater than 500 nM; in the test with Ba/F3-TEL-PDGFβ(WT), no more than 200 nM. Besides, the half-maximal inhibitory concentration (IC50) at human PDGFR-β(wt) is no more than 50 nM.
With `COCCOc1cc2ncnc(-c3ccc(NC(=O)Cc4ccc(C(F)(F)F)nc4)cc3)c2cc1OC` [Example 118, N-(4-(6-methoxy-7-(2-methoxyethoxy)quinazolin-4-yl)phenyl)-2-(6-(trifluoromethyl)pyridin-3-yl)acetamide], the GI50 in the test on c-KIT V560G/D816V and in the test with Ba/F3-TEL-PDGFβ(WT) was no more than 200 nM throughout.
In the case of `COc1cc2ncnc(-c3ccc(NC(=O)Cc4ccc(C(F)(F)F)cc4)cc3)c2cc1OCCCN1CCOCC1` [Example 129, N-(4-(7-methoxy-6-(3-morpholinopropoxy)quinazolin-4-yl)phenyl)-2-(4-(trifluoromethyl)phenyl)acetamide], the GI50 is no more than 200 nM in the test on Ba/F3-c-KIT(D816V) and 200 to 500 nM in the test on c-KIT V560G/D816V. In addition, the IC50 on human PDGFR-β(wt) was no more than 50 nM.
In the case of `COc1cc2ncnc(-c3ccc(NC(=O)Cc4ccc(C(F)(F)F)cc4)cc3)c2cc1OC(=O)N1CCN(C)CC1` [Example 132, 7-methoxy-4-(4-(2-(4-(trifluoromethyl)phenyl)acetamido)phenyl)quinazolin-6-yl 4-methylpiperazin-1-carboxylate], the GI50 in the test on Ba/F3-c-KIT(D816V) was no more than 200 nM; with c-KIT V560G/D816V it was greater than 500 nM; with Ba/F3-TEL-PDGFβ(WT), no more than 200 nM.
`COc1cc2c(-c3ccc(NC(=O)Cc4ccc5c(c4)OCO5)c(F)c3)ncnc2cc1OCCCN1CCN(C)CC1` [Example 163, 2-(benzo[d][1,3]dioxol-5-yl)-N-(2-fluoro-4-(6-methoxy-7-(3-(4-methylpiperazin-1-yl)propoxy)quinazolin-4-yl)phenyl)acetamide]: in the test with Ba/F3-TEL-PDGFβ(WT), the GI50 was no more than 200 nM. For the same compound, at human PDGFR-β(wt), the IC50 is no more than 50 nM.
Turning to `COc1cc2c(-c3ccc(NC(=O)Cc4ccc5c(c4)OCO5)c(C)c3)ncnc2cc1OCCCN1CCN(C)CC1` [Example 164], in the test with Ba/F3-TEL-PDGFβ(WT), the GI50 was no more than 200 nM. For the same compound, on human PDGFR-β(wt), the 50% inhibitory concentration (IC50) was no more than 50 nM.
Take `COc1cc2c(-c3ccc(C(=O)NCc4ccc(C(F)(F)F)cc4)cc3)ncnc2cc1OCCCN1CCN(C)CC1` [Example 165, 4-(6-methoxy-7-(3-(4-methylpiperazin-1-yl)propoxy)quinazolin-4-yl)-N-(4-(trifluoromethyl)benzyl)benzamide]: the GI50 in the test with Ba/F3-TEL-PDGFβ(WT) was no more than 200 nM. Also, the half-maximal inhibitory concentration (IC50) on human PDGFR-β(wt) is no more than 50 nM.
Regarding `COc1cc2c(-c3ccc(C(=O)NCc4ccc5c(c4)OCO5)cc3)ncnc2cc1OCCCN1CCN(C)CC1` [Example 166, N-(benzo[d][1,3]dioxol-5-ylmethyl)-4-(6-methoxy-7-(3-(4-methylpiperazin-1-yl)propoxy)quinazolin-4-yl)benzamide], in the test with Ba/F3-TEL-PDGFβ(WT), the GI50 is no more than 200 nM. The IC50 on human PDGFR-β(wt) is no more than 50 nM.
Take `COc1cc2c(-c3ccc(C(=O)NCc4ccc(F)c(F)c4)cc3)ncnc2cc1OCCCN1CCN(C)CC1` [Example 167, N-(3,4-difluorobenzyl)-4-(6-methoxy-7-(3-(4-methylpiperazin-1-yl)propoxy)quinazolin-4-yl)benzamide]: in the test with Ba/F3-TEL-PDGFβ(WT), the GI50 is no more than 200 nM. For the same compound, the 50% inhibitory concentration (IC50) at human PDGFR-β(wt) is no more than 50 nM.
`COc1cc2c(-c3ccc(NC(=O)Nc4cccc(C(F)(F)F)c4)cc3)ncnc2cc1OCCCN1CCN(C)CC1` [Example 169]: in the test with Ba/F3-TEL-PDGFβ(WT), the GI50 is no more than 200 nM.

Values taken from US20260138959A1, “QUINAZOLINE DERIVATIVE COMPOUND AND USE THEREOF” (VORONOI INC., priority 2021, published 2026).
